Where two headings read alike, the source gives them in different places.
Legend:
[1] = target: T1, 5 alpha reductase, type II (Homo sapiens, UniProt P31213); test: Type II 5 alpha reductase inhibition ([14C] testosterone conversion); assay type: biochemical
T1 construct: made in house; host or cells: genetically modified yeast
T1 sequence (P31213 1-254): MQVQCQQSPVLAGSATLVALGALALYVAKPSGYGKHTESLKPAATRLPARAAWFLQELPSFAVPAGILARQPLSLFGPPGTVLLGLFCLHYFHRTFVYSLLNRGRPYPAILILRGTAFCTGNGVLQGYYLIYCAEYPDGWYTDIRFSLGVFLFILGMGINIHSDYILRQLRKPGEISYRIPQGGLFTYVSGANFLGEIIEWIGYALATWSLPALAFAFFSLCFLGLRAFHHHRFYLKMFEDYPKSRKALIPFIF
From the text: Determination of the 5 alpha reductase inhibitory activities by Ajuga reptans extracts in comparison to Serenoa repens extracts. Said determination has been performed using enzymes (5 alpha reductase, type I and type II) produced by genetically modified yeast. Enzyme activities have been determined in the presence of Ajuga reptans extracts, teupolioside, isoteupolioside and Serenoa repens extracts.
Determination of the type II 5 alpha reductase activity has been performed in an analogous manner to that just described, with the exception of a different pH value for the 0.1 M Tris-citrate buffer (pH 5.0).
In both assays, the steroids have been extracted using 5 ml of methylene chloride. The extracts have then been dried under a stream of nitrogen and the dried residues obtained have been dissolved in 20 μl of a chloroform-methanol mixture (2:1 v/v). An aliquot of said mixture has been deposited on the surface of a silica gel TLC plate. […] For quantification of the results, the spots have been scraped from the TLC plate and extracted with 2 ml of ethyl acetate. The extracts obtained have been analysed, using scintillation fluid, with the aid of a Wallach β-counter. The enzyme activity has been calculated from the percentage conversion (C %) of the substrate into final product: C%=[counted product/(counted substrate+product)]×100.

[2] = test system: tyrosinase; test: Tyrosinase inhibition, conversion of L-DOPA to DOPAquinone; assay type: biochemical; conditions: 100 μg/ml
From the text: The enzyme tyrosinase catalyses the reactions leading to melanin biosynthesis from tyrosine. […] Substances inhibiting tyrosinase activity produce a clearing/bleaching effect on the skin, since they block melanin synthesis. The method used to determine the inhibition of tyrosinase activity in the oxidation reaction of L-tyrosine to L-DOPA is that described in Kim et al. […] Biol. Pharm. […] The method applied for determination of the inhibition of tyrosinase activity in the conversion of L-DOPA to DOPAquinone is that described in Masamoto et al. (Mushroom tyrosinase inhibitory activity of esculetin isolated from seeds of Euphorbia lathyris L. Biosci. Biotechnol. Biochem., 67(3), 631-634, 2003).

[3] = Metal chelation, spectrophotometric (Fe3+); assay type: physicochemical
From the text: The chelating activities of Ajuga reptans extracts in relation to Fe^2+, Fe^3+, Cu^2+ and Ni^2+ metal ions has been determined by means of spectrophotometric measurements using a Shimadzu 1770 UV spectrophotometer. The activities of chelating agents depends on the association constant (equilibrium) of their reactions with the metals according to the following reaction:
[formula] wherein Keq is the equilibrium constant equal to the ratio of concentrations at equilibrium of a complex and a product of equilibrium concentrations of metal ions and a chelator:
The method used for determining chelating activities is well documented in the literature (Korkina L G, Afarras'er I B. Antioxidant and chelating properties of flavonoids. Adv. Pharmacol., 1997, 38:151-63). The results are expressed as Keq (M^−1) calculated for a pure phenylpropanoid. This way the chelating activity against ferrous (Fe II), ferric (Fe III), copper (Cu II) and nickel ions has been calculated.

[4] = test system: platelets; test: ADP induced platelet aggregation-disaggregation in platelet rich plasma; assay type: cell-based, rabbit; conditions: for Control disaggregation: 10 minutes after ADP; for Control disaggregation / Control aggregation / Latency period: Mean ± SD (n = 6); for Control aggregation: ADP 10 μM
Method: Platelet enriched rabbit plasma has been used to assess the platelet anti-aggregating and disaggregating properties of Ajuga reptans Extracts compared with teupolioside and isoteupolioside. Platelet rich plasma has been obtained from rabbit venous blood by mixing it with a 3.8% sodium citrate solution (9:1 v/v). The solution has then been centrifuged at 460×g for 20 minutes. The supernatant has been collected and immediately used for the aggregation assays. Platelet aggregation has been recorded using a Chronolog “Ionised calcium platelet aggregometer” (Chrono-log Co., USA). All measurements have been performed at 37° C. with continuous stirring. One milliliter of the platelet suspension (in the presence or absence of the test substances) has been added to the cuvettes and incubated for five minutes to equilibrate the cells to 37° C. Then 10 μl of a solution of ADP (final concentration—10 μM) has been added and the luminous transmittance continuously recorded. The results are expressed as the DT/DTK ratio, where DTK and DT are the luminous transmittance values, in the absence and presence of extract respectively.
Platelet disaggregation (the disappearance of pre-formed aggregates) has been determined using the same luminous transmittance curve 10 minutes following the addition of ADP. The results are expressed as the DR/DRk ratio, where DRk and DR, are the luminous transmittance in the absence and presence of extract. The test substances, diluted in physiological solution (isotonic saline) (pH 7.4) are pre-incubated with the platelet rich plasma (1:10 v/v) for 5-40 minutes. The aggregation measurements have then been performed. Physiological solution carrier has been added to the control samples (1:10 v/v).

[5] = Fe2+-induced lipid peroxidation (thiobarbituric acid); assay type: biochemical
From the text: Ajuga reptans Extracts 1 and 2, prepared as described in examples 1 and 2, and isoteupolioside have been used to assess in vitro antioxidant action with specific oxygen radical generating systems such as the superoxide anion (O2^−), the hydroxyl radical (HO^−), the peroxynitrite radical (ONOO^−) and the inhibition of lipid peroxidation. The superoxide anion has been measured by a chemiluminescent assay based on the hypoxanthine (HPX)/xanthine oxidase (XOD) reaction using the Lumimax Superoxide Anion Detection Kit (Stratagene, La Jolla, Calif., USA) and following the manufacturer's instructions. Hydroxyl radical scavenger activity has been measured by means of the Fenton reaction for the production of hydroxyl radicals and chemiluminescent dosage (using a Victor^3 chemiluminometer, Wallac, Finland) with luminol. Peroxynitrite ions have been determined by means of dosage with a spontaneous generator of peroxynitrites (3-morpholinosidnonimine hydrochloride; SIN-1) and a stable reagent for the nitroxyl ions (2-(4-carboxyphenyl)-4,4,5,5-tetramethylimidazoline-1-oxyl-3-oxide potassium salt PTIO spin trap) then dosed by means of electron spin resonance (ESR) using a Nippon Denshi JES-FR30. […]

## C[C@@H]1O[C@@H](O[C@@H]2[C@@H](O)[C@H](OCCc3ccc(O)c(O)c3)O[C@H](CO)[C@H]2OC(=O)/C=C/c2ccc(O)c(O)c2)[C@H](O[C@@H]2O[C@H](CO)[C@H](O)[C@H](O)[C@H]2O)[C@H](O)[C@H]1O [Teupolioside, teupolioside]
[1]; second column of Table 9, pH 5.0, 5 μM testosterone, read-out: Type II 5 alpha reductase inhibition (IC50) (converted)
  IC50: 30.5 µM
[2]
  Test LDOPA-DOPAquinone inhibitory activity (%): 21%
[3]; calculated for a pure phenylpropanoid
  Fe^3+ (Keq, M^−1): 430000 ± 90000 M⁻¹
[4]
  Effect on platelet aggregation, in words: modest inhibiting effect on platelet aggregation, only at 1 mg/ml concentration
[4]; 0.001 mg/ml
  Control disaggregation: 105 ± 5
  Control aggregation: 121 ± 6
  Latency period: 101 ± 3
[4]; 0.01 mg/ml
  Control disaggregation: 113 ± 10
  Control aggregation: 110 ± 10
  Latency period: 95 ± 5
[4]; 0.1 mg/ml
  Control disaggregation: 124 ± 15
  Control aggregation: 114 ± 10
  Latency period: 94 ± 4
[4]; 1.0 mg/ml
  Control disaggregation: 100 ± 10
  Control aggregation: 68 ± 9
  Latency period: 66 ± 10
[5]; means of 6 independent assays
  Lipid peroxidation (IC50): 9.4 µg/mL

## CC1OC(OC2C(O)C(COC(=O)C=Cc3ccc(O)c(O)c3)OC(OCCc3ccc(O)c(O)c3)C2O)C(OC2OC(CO)C(O)C(O)C2O)C(O)C1O (stereo not shown) [Isoteupolioside, isoteupolioside]
[1]
  IC50: 33 µM
[2]
  Test LDOPA-DOPAquinone inhibitory activity (%): 20%
[3]
  Fe^3+ (Keq, M^−1): 420000 ± 110000 M⁻¹
[4]
  Platelet disaggregation test, activity in words: activity similar to teupolioside
[5]
  Lipid peroxidation (IC50): 9.14 µg/mL
